Measured values from patent publication US4906639A, “Cycloalkanol esters of dihydrolysergic acid” (Eli Lilly and Company, priority 1989, dated 1990).
Structures can show the parent of a compound that is named as a salt.

Legend:
[1] = target: T1, 5HT2 receptors (Rattus norvegicus, UniProt P14842); experiment: Apparent dissociation constants for 5HT2 receptors determined in the rat jugular vein (antagonism of contraction to serotonin); format: cell-based, rat (male Wistar); details: antagonist incubated one hour, agonist serotonin, 37° C., read-out: -log KB (apparent dissociation constant, negative logarithm) (converted)
T1 construct: their external jugular veins and thoracic aortas dissected free of connective tissue; from tissue; host or cells: isolated external jugular vein of male Wistar rats
Experimental: An initial optimum resting force of 1 and 4 g was applied to the jugular vein and aorta, respectively. […] Exp. Ther., 205, 400 (1978). Alpha receptor antagonist activity was evaluated in the aorta.

[2] = tested on: 5HT2 receptors; details: mediated by 5HT2 receptors; Cohen I; cited from earlier work

T1 sequence (P14842 whole entry): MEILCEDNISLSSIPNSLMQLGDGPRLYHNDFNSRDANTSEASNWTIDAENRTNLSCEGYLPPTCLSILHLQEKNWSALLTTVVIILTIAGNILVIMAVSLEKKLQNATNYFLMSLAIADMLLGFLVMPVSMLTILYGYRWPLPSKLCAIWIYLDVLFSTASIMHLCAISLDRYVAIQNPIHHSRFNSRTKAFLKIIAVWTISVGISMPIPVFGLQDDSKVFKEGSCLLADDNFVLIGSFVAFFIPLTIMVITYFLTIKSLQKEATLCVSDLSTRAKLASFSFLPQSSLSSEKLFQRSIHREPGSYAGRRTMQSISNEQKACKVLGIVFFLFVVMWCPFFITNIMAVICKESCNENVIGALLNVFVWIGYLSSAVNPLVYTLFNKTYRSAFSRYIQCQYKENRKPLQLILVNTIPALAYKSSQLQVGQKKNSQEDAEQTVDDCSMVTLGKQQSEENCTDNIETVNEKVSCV

Row | Compound | Kb [1] [nM] | antagonism of vascular contraction to serotonin [2]
1 | CCN1C[C@H](C(=O)OC2CCCCC2)C[C@@H]2c3cccc4c3c(cn4C(C)C)C[C@H]21 [C2 H5, cyclohexyl, HCl, 1-Isopropyl-6-ethyl-8β-cyclohexyloxycarbonylergoline] | 15.5 | 
2 | CC(C)n1cc2c3c(cccc31)[C@H]1C[C@@H](C(=O)OC3CCC(=O)CC3)CN(C)[C@@H]1C2 [CH3,4-oxocyclohexyl, maleate, 4-Oxocyclohexyl 1-isopropyl-9,10-dihydrolysergate] | 0.0977 | 
3 | CC(C)n1cc2c3c(cccc31)[C@H]1C[C@@H](C(=O)OC3CCCCC3)CN(C)[C@@H]1C2 [CH3, cyclohexyl, maleate, cyclohexyl 1-isopropyl-9,10-dihydrolysergate maleate] | 2.14 | 
4 | CC(O)C(C)OC(=O)[C@@H]1C[C@@H]2c3cccc4c3c(cn4C(C)C)C[C@H]2N(C)C1 (stereo partly drawn) [LY53857, 1-isopropyl-6-methyl-8β-(1-methyl-2-hydroxy)propoxycarbonyl-5R-ergoline] |  | potent antagonist
5 | CCCN1C[C@H](C(=O)OC2CCCCC2)C[C@@H]2c3cccc4c3c(cn4C(C)C)C[C@H]21 [n-C3 H7, cyclohexyl, HCl] | 85.1 | 
6 | CCCCN1C[C@H](C(=O)OC2CCCCC2)C[C@@H]2c3cccc4c3c(cn4C(C)C)C[C@H]21 [n-C4 H9, cyclohexyl, HCl, 1-Isopropyl-6-n-butyl-8β-cyclohexyloxycarbonyl ergoline hydrochloride] | 39.8 | 
